Experiment [1] relates to HT-29 (human colon adenocarcinoma). Briefly: Inhibition of cell proliferation (MTT), HT-29. The experiment is classed as cell-based. The settings on record: Homo sapiens, 48 h of treatment (footnote), average ±SD of three experiments. An excerpt:
(§1) The ability of the synthetic compounds to inhibit cell proliferation was established by means of their IC50 values towards the tumor cell lines HT-29 (human colon adenocarcinoma), MCF-7 (breast adenocarcinoma) and A-549 (human pulmonary adenocarcinoma), as well as towards the nontumor cell line HEK-293 (human embryonic kidney cells). Results for compounds derived from CA-4 are presented in Table 1, along with the calculated selectivity indexes SIA (for HT-29 cell line), SIB (for MCF-7 cell line) and SIc (for A-549 cell line), obtained by dividing the IC50 values of the nontumor cell line (HEK-293) by those of the corresponding tumor cell line. The higher the SI index, the higher the therapeutic safety margin.
(§2) Cell culture media were purchased from Gibco (Grand Island, NY, USA). Fetal bovine serum (FBS) was a product of Harlan-Seralab (Belton, U.K.). Supplements and other chemicals not listed in this section were obtained from Sigma Chemical Co. (St. Louis, MO, USA). Plastics for cell culture were supplied by Thermo Fischer Scientific Inc., Madrid, Spain. All tested compounds were dissolved in DMSO at a concentration of 10 μg/mL and stored at −20 °C until use. HT-29, MCF-7, A-549 and HEK-293 cell lines were maintained in a Dulbecco’s modified Eagle’s medium (DMEM) containing glucose (1 g/L), glutamine (2 mM), penicillin (50 IU/mL), streptomycin (50 μg/mL) and amphotericin B (1.25 μg/mL), supplemented with 10% FBS. Cells from human non-small lung carcinoma (clone A549; ATCC n°: CCL2, MD, USA) were routinely grown at 37 °C in a humidified atmosphere of 5% CO2. Cells were maintained in a standard medium composed of RPMI 1640 (Lonza, Group Ltd., Basel, Switzerland), supplemented with 10% fetal bovine serum (FBS), 2 mM L-glutamine and 1% penicillin and streptomycin (Invitrogen). Cells were free from mycoplasma as determined by MycoAlert tests (Lonza, Group Ltd., Basel, Switzerland).
(§3) A total of 5 × 10^3 HT-29, MCF-7 or HEK-293 cells in a total volume of 100 μL of their respective growth media were incubated with serial dilutions of the tested compounds. The 3-(4,5-dimethylthiazol-2-yl)-2,5-diphenyltetrazolium bromide (MTT; Sigma Chemical Co.) dye reduction assay in a 96-well microplate was used, as previously described. […] The resulting formazan was dissolved in 150 μL of 0.04 N HCl/2-propanol and read at 550 nm. All determinations were carried out in triplicate.

Experiment [2] deals with MCF-7 (breast adenocarcinoma). Briefly: Inhibition of cell proliferation (MTT), MCF-7. The class given is cell-based, human. The settings on record: Homo sapiens, 48 h of treatment (footnote), average ±SD of three experiments.
Source text: as §1, §2, §3

For experiment [3], the system named is A-549 (human pulmonary adenocarcinoma). Kind of experiment: Inhibition of cell proliferation (MTT), A-549. The class given is cell-based. Particulars: 48 h of treatment (footnote), average ±SD of three experiments.
Source text: as §1
as §2, with “Switzerland). […]” for “Switzerland).”

Experiment [4] relates to HEK-293 (human embryonic kidney cells). Briefly: Inhibition of cell proliferation (MTT), nontumor HEK-293. The experiment is classed as cell-based. The settings on record: Homo sapiens, 48 h of treatment (footnote), average ±SD of three experiments.
Source text: as §1, §2, §3

Another experiment concerns purified tubulin. Kind of experiment: Critical concentration (CrC) for the assembly of purified tubulin in GAB. The class given is biochemical. The settings on record: compound 27.5 μM, tubulin 25 μM, glycerol (GAB) and GTP assembly buffer; control 7.9 ± 1.2. On the procedure: The effect on the self-assembly of tubulin was determined by measuring the critical concentration (CrC).

For a further experiment, the system named is A-549 cells. Kind of experiment: Cell cycle distribution by flow cytometry. The experiment is classed as cell-based, human. The settings on record: A-549, 24 h. On the procedure: The effects of some CA-4 derivatives on the cell cycle were evaluated in A-549 cells.
The effects of some AmCA-4 derivatives on the cell cycle were also evaluated in A-549 cells.
The supernatant and trypsinated cells were harvested and then centrifuged (1200 rpm, 5 min, 4 °C). The cell pellet was resuspended in 1 mL of cold 70% ethanol for 30 min at −20 °C. Cells were centrifuged (2000 rpm, 5 min, 4 °C) to remove ethanol, and then the cell pellet was resuspended in the staining mix containing 50 µg/mL propidium iodide (Molecular Probes, France) and 100 µg/mL RNAse A (Sigma, France) in PBS for 20 min at room temperature in darkness. Samples were analyzed on a Becton Dickinson FACScan flow cytometer using the CellQuest software, which was also used to determine the percentage of cells in the G2/M phases of the cell cycle. PI was excited at 488 nm, and fluorescence analyzed at 620 nm on channel Fl-2.
Background: In flow cytometry, cells or beads pass a laser one at a time.

Where [5] appears, read: concentration per compound as in Tables 6 and 7.
[6] abbreviates: Homo sapiens, A549, 48 h, Table 1.

One may read the IC50 as the concentration needed to halve the response being measured. Read a high IC50 as weaker potency. On to `COc1ccc(/C=C\c2cc(OC)c(OC)c(OC)c2)cc1NC(=O)[C@H](N)CC(C)C` [Compound 10.2], for which the IC50 in experiment [1] (HT-29, 48 h, Table 2) worked out at 1.05 ± 0.14 µM; in experiment [2] (MCF7, 48 h, Table 2), 2 ± 0.9 µM; in experiment [3] (Homo sapiens, A549, 48 h, Table 2), 0.157 ± 0.007 µM; in experiment [4] (HEK293, 48 h, Table 2), 0.43 ± 0.04 µM. For the same compound, the “CrC (critical concentration)” value in the experiment with purified tubulin came to 7.0 ± 0.5 µM. Further, in the experiment on A-549 cells (0.5 µM), the G0/G1 is listed as 63 ± 4%. Further, the G2/M in the experiment with A-549 cells (0.5 µM) worked out at 22 ± 2%. For the same compound, the S in the experiment on A-549 cells (0.5 µM) is 16 ± 3%. Moreover, in the experiment with A-549 cells (setting [5]), the “Effect on the cell cycle” value is given as “do not accumulate a high percentage of cells in phase G2/M”.
For the compound `COc1ccc(/C=C\c2cc(OC)c(OC)c(OC)c2)cc1OCC(=O)N[C@@H](C(=O)O)C(C)C` [Compound 6.1], the IC50 was 45 ± 5 µM in experiment [1] (HT-29, Table 1); 46 ± 3 µM in experiment [2] (MCF7, Table 1); 54 ± 7 µM in experiment [3] (setting [6]); 39 ± 6 µM in experiment [4] (HEK293, Table 1). Also, in the experiment on purified tubulin, the “CrC (critical concentration)” value was found to be 9.4 ± 1.3 µM. The same compound registered a G0/G1 with A-549 cells (100 μM) of 67 ± 2%. In the experiment with A-549 cells (100 μM), this compound displayed a G2/M of 13 ± 1%. In the experiment with A-549 cells (100 μM), the S is recorded as 20 ± 2%. Further, in the experiment with A-549 cells (setting [5]), the “Effect on the cell cycle” value is “do not exert any significant effect on the cells”.
As for `COC(=O)[C@H]1CCCN1C(=O)COc1cc(/C=C\c2cc(OC)c(OC)c(OC)c2)ccc1OC` [Compound 5.4], the IC50 in experiment [1] (HT-29, Table 1) was 50 µM; in experiment [2] (MCF7, Table 1) it was 10 ± 4 µM; in experiment [3] (setting [6]) it was 15 ± 1 µM; in experiment [4] (HEK293, Table 1) it was 5.7 ± 0.8 µM. Besides, in the experiment on purified tubulin, the “CrC (critical concentration)” value was 9 ± 3 µM. Also, the G0/G1 in the experiment on A-549 cells (75 μM) was 36 ± 4%. Moreover, the G2/M in the experiment on A-549 cells (75 μM) was determined as 50 ± 1%. Also, the S in the experiment on A-549 cells (75 μM) is reported as 14 ± 3%.
Take `COC(=O)[C@@H]1CCCN1C(=O)COc1cc(/C=C\c2cc(OC)c(OC)c(OC)c2)ccc1OC` [Compound 3.5]: the IC50 in experiment [1] (HT-29, Table 1) was found to be 48 ± 5 µM; in experiment [2] (MCF7, Table 1), 24 ± 2 µM; in experiment [3] (setting [6]), 50 ± 10 µM; in experiment [4] (HEK293, Table 1), 20 ± 1 µM. In addition, the “CrC (critical concentration)” value in the experiment on purified tubulin was 10.4 ± 2.0 µM. The G0/G1 in the experiment on A-549 cells (100 μM) came out at 77 ± 2%. Further, in the experiment on A-549 cells (100 μM), the G2/M was 7 ± 1%. This compound yielded a S in the experiment with A-549 cells (100 μM) of 16 ± 2%. In the experiment with A-549 cells (setting [5]), the “Effect on the cell cycle” value is recorded as “do not exert any significant effect on the cells”.
Take `COC(=O)[C@H](CCSC)NC(=O)COc1cc(/C=C\c2cc(OC)c(OC)c(OC)c2)ccc1OC` [Compound 3.9]: the IC50 in experiment [1] (HT-29, Table 1) is 16 ± 7 µM; in experiment [2] (MCF7, Table 1) it was 10 ± 3 µM; in experiment [3] (setting [6]), under 10 µM; in experiment [3] (Table 1), 10 ± 2 µM; in experiment [4] (HEK293, Table 1), 8 ± 1 µM. Also, in the experiment on purified tubulin, the “CrC (critical concentration)” value amounted to 8.06 ± 0.04 µM. The compound also came in with a G0/G1 in the experiment with A-549 cells (75 μM) of 47 ± 4%. The compound further yielded a G2/M with A-549 cells (75 μM) of 36 ± 1%. This compound also returned a S in the experiment with A-549 cells (75 μM) of 17 ± 3%.
In the case of `COc1ccc(/C=C\c2cc(OC)c(OC)c(OC)c2)cc1OCC(=O)N1CCC[C@H]1C(=O)O` [Compound 4.5], the IC50 in experiment [1] (HT-29, 48 h, Table 1) came out at 26 ± 13 µM; in experiment [2] (MCF7, 48 h, Table 1), 83 ± 16 µM; in experiment [3] (setting [6]) it was 110 ± 10 µM; in experiment [4] (HEK293, 48 h, Table 1), 45 ± 16 µM. In addition, the “CrC (critical concentration)” value in the experiment with purified tubulin stood at 9.2 ± 0.5 µM. Besides, the G0/G1 in the experiment with A-549 cells (75 μM) was determined as 72%. Moreover, the G2/M with A-549 cells (75 μM) stood at 16%. Also, the S with A-549 cells (75 μM) was found to be 12%. Further, the “Effect on the cell cycle” value with A-549 cells (setting [5]) is given as “do not exert any significant effect on the cells”.
On to `COC(=O)[C@H](CC(C)C)NC(=O)COc1cc(/C=C\c2cc(OC)c(OC)c(OC)c2)ccc1OC` [Compound 3.3], for which the IC50 was 29 ± 6 µM in experiment [1] (HT-29, 48 h, Table 1); 19 ± 6 µM in experiment [2] (MCF7, 48 h, Table 1); under 10 µM in experiment [3] (setting [6]); 8 ± 1 µM in experiment [3] (Table 1); 9 ± 2 µM in experiment [4] (HEK293, 48 h, Table 1). In addition, the “CrC (critical concentration)” value with purified tubulin is reported as 9.4 ± 1.4 µM. In the experiment with A-549 cells (75 μM), the G0/G1 is reported as 45 ± 6%. Besides, in the experiment with A-549 cells (75 μM), the G2/M was found to be 36 ± 4%. In addition, the S with A-549 cells (75 μM) is reported as 19 ± 2%.
On to `COC(=O)[C@@H](NC(=O)COc1cc(/C=C\c2cc(OC)c(OC)c(OC)c2)ccc1OC)C(C)C` [Compound 3.2], for which the IC50 was determined as 24 ± 4 µM in experiment [1] (HT-29, 48 h, Table 1); 12 ± 6 µM in experiment [2] (MCF7, 48 h, Table 1); 24 ± 1 µM in experiment [3] (setting [6]); 5 ± 2 µM in experiment [4] (HEK293, 48 h, Table 1). In the experiment on purified tubulin, the “CrC (critical concentration)” value is given as 11.7 ± 2.3 µM. Besides, in the experiment on A-549 cells (75 μM), the G0/G1 is 42 ± 3%. In the experiment on A-549 cells (75 μM), this compound yielded a G2/M of 44 ± 1%. The same compound came in with a S with A-549 cells (75 μM) of 14 ± 4%.
As to `COc1ccc(/C=C\c2cc(OC)c(OC)c(OC)c2)cc1OCC(=O)N[C@@H](Cc1ccc(O)cc1)C(=O)O` [Compound 4.8], the IC50 amounted to 55 ± 5 µM in experiment [1] (HT-29, Table 1); 43 ± 7 µM in experiment [2] (MCF7, Table 1); 30 ± 7 µM in experiment [3] (setting [6]); 33 ± 1 µM in experiment [4] (HEK293, Table 1). Also, in the experiment on purified tubulin, the “CrC (critical concentration)” value worked out at 8.5 ± 2.0 µM.
For `COC(=O)[C@@H](CO)NC(=O)COc1cc(/C=C\c2cc(OC)c(OC)c(OC)c2)ccc1OC` [Compound 5.5], the half-inhibitory concentration (IC50) in experiment [1] (HT-29, 48 h, Table 1) was 11 ± 2 µM; in experiment [2] (MCF7, 48 h, Table 1), 7 ± 2 µM; in experiment [3] (setting [6]), 28 ± 1 µM; in experiment [4] (HEK293, 48 h, Table 1), 9 ± 3 µM. Moreover, in the experiment with purified tubulin, the “CrC (critical concentration)” value came out at 9.2 ± 0.9 µM. Further, the “cells accumulated in the G2/M phase” value in the experiment with A-549 cells (concentration per compound as in Tables 6 and 7, control 14%) is recorded as 50–70%.

(Values after article PMC7037732, “Synthesis of Combretastatin A-4 and 3′-Aminocombretastatin A-4 derivatives with Aminoacid Containing Pendants and Study of their Interaction with Tubulin and as Downregulators of the VEGF, hTERT and c-Myc Gene Expression” (Molecules, 2020).)
